Molecules are shown by their SMILES. Bounds are passed on as bounds.

Assay [1] deals with Human KLK1 (Homo sapiens (Human), UniProt P06870). Put plainly: Determination of the IC50 for KLK1 (fluorogenic substrate H-DVal-Leu-Arg-AFC). The following applies: 37° C. It counts as biochemical. As to the method: Determination of the IC50 for KLK1
Human KLK1 (Callbiochem) was incubated at 37° C. with the fluorogenic substrate H-DVal-Leu-Arg-AFC and various concentrations of the test compound. Residual enzyme activity (initial rate of reaction) was determined by measuring the change in […] at 410 nm and the IC50 value for the test compound was determined.

In assay [2] the target is Human plasma kallikrein (Homo sapiens (Human), UniProt P03952). Put plainly: Determination of the IC50 for plasma kallikrein (fluorogenic substrate H-DPro-Phe-Arg-AFC). The following applies: 37° C., read-out: IC50 (human PKaI). It counts as biochemical. The protocol:
Determination of the IC50 for Plasma Kallikrein
Human plasma kallikrein (Protogen) was incubated at 37° C. with the fluorogenic substrate H-DPro-Phe-Arg-AFC and various concentrations of the test compound. Residual enzyme activity (initial rate of reaction) was determined by measuring the change in […] at 410 nm and the IC50 value for the test compound was determined.

Sequence of Human KLK1 (P06870 25-262): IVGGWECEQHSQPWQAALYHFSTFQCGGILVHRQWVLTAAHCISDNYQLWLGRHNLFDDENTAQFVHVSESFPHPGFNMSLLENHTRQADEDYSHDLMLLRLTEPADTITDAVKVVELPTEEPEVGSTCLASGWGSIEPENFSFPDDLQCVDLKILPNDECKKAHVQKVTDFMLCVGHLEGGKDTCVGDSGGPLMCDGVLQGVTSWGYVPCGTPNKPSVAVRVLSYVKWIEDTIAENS
Sequence of Human plasma kallikrein (P03952 391-638): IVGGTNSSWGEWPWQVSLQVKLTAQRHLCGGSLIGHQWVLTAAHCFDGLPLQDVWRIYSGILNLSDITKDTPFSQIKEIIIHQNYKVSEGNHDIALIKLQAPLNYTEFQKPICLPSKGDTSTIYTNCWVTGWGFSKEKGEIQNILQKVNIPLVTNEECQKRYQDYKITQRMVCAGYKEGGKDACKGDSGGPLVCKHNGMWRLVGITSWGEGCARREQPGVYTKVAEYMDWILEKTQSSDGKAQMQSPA
Sequence of Human plasma kallikrein (P03952 20-390 partner): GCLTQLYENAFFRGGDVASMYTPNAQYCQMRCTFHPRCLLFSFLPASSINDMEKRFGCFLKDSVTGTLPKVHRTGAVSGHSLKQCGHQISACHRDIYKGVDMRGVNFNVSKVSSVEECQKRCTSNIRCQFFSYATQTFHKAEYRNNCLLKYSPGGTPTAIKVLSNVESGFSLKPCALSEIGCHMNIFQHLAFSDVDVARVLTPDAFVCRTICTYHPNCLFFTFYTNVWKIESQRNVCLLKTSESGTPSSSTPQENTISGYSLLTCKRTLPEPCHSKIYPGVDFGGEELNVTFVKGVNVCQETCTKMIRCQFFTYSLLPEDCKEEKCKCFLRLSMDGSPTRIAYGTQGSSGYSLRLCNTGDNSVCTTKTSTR

For `CCC(C)Oc1ccc(Cn2cc(C(=O)NCc3ccc4c(N)nccc4c3)c(C(F)(F)F)n2)cn1` (centres unmarked) [Example 72, 1-(6-sec-Butoxy-pyridin-3-ylmethyl)-3-trifluoromethyl-1H-pyrazole-4-carboxylic acid (1-amino-isoquinolin-6-ylmethyl)-amide], the half-maximal inhibitory concentration (IC50) (in general, the point on the concentration scale where inhibition reaches its midpoint) was greater than 10000 nM in assay [1] and 118 nM in assay [2].

As to `Nc1nccc2cc(CNC(=O)c3cn(Cc4cnc(N5CCCC5)c(F)c4)nc3C(F)(F)F)ccc12` [Example 73, 1-(5-Fluoro-6-pyrrolidin-1-yl-pyridin-3-ylmethyl)-3-trifluoromethyl-1H-pyrazole-4-carboxylic acid (1-amino-isoquinolin-6-ylmethyl)-amide], the figures for the IC50 in assay [1] and in assay [2] were 1570 nM and 22.6 nM, respectively.

With `CCOc1cc(Cn2cc(C(=O)NCc3ccc4c(N)nccc4c3)c(C(F)(F)F)n2)cnc1Cl` [Example 74, 1-(6-Chloro-5-ethoxy-pyridin-3-ylmethyl)-3-trifluoromethyl-1H-pyrazole-4-carboxylic acid (1-amino-isoquinolin-6-ylmethyl)-amide], the IC50 in assay [1] is 2770 nM; in assay [2] it was 425 nM.

Turning to `CCOc1ncc(Cn2cc(C(=O)NCc3ccc4c(N)nccc4c3)c(C(F)(F)F)n2)cc1F` [Example 75, 1-(6-Ethoxy-5-fluoro-pyridin-3-ylmethyl)-3-trifluoromethyl-1H-pyrazole-4-carboxylic acid (1-amino-isoquinolin-6-ylmethyl)-amide], the IC50 in assay [1] is 1300 nM; in assay [2], 98.3 nM.

As for `Nc1nccc2cc(CNC(=O)c3cn(Cc4ccc(Cn5cccn5)cc4)nc3C(F)(F)F)ccc12` [Example 76, 1-(4-Pyrazol-1-ylmethyl-benzyl)-3-trifluoromethyl-1H-pyrazole-4-carboxylic acid (1-amino-isoquinolin-6-ylmethyl)-amide], the IC50 in assay [1] is greater than 1000 nM; in assay [2] it was 0.92 nM.

In the case of `N#Cc1cnn(Cc2ccc(Cn3cc(C(=O)NCc4ccc5c(N)nccc5c4)c(C(F)(F)F)n3)cc2)c1` [Example 77, 1-[4-(4-Cyano-pyrazol-1-ylmethyl)-benzyl]-3-trifluoromethyl-1H-pyrazole-4-carboxylic acid (1-amino-isoquinolin-6-ylmethyl)-amide], the IC50 in assay [1] is greater than 10000 nM; in assay [2] it was 85.4 nM.

With `NC(=O)c1cnn(Cc2ccc(Cn3cc(C(=O)NCc4ccc5c(N)nccc5c4)c(C(F)(F)F)n3)cc2)c1` [Example 78, 1-[4-(4-Carbamoyl-pyrazol-1-ylmethyl)-benzyl]-3-trifluoromethyl-1H-pyrazole-4-carboxylic acid (1-amino-isoquinolin-6-ylmethyl)-amide], the values for the half-inhibitory concentration (IC50) in assay [1] and in assay [2] were greater than 10000 nM and 91.1 nM, respectively.

For the compound `Nc1nccc2cc(CNC(=O)c3cn(Cc4ccc(Cn5cccn5)nc4)nc3C(F)(F)F)ccc12` [Example 79, 1-(6-Pyrazol-1-ylmethyl-pyridin-3-ylmethyl)-3-trifluoromethyl-1H-pyrazole-4-carboxylic acid (1-amino-isoquinolin-6-ylmethyl)-amide], the IC50 in assay [1] was greater than 10000 nM; in assay [2], 2.29 nM.

Consider `CCOc1cc(Cn2cc(C(=O)NCc3ccc4c(N)nccc4c3)c(C(F)(F)F)n2)ccn1` [Example 80, 1-(2-Ethoxy-pyridin-4-ylmethyl)-3-trifluoromethyl-1H-pyrazole-4-carboxylic acid (1-amino-isoquinolin-6-ylmethyl)-amide], for which the IC50 was 9280 nM in assay [1] and 206 nM in assay [2].

On to `Nc1nccc2cc(CNC(=O)c3cn(Cc4csc(Cn5cccn5)n4)nc3C(F)(F)F)ccc12` [Example 81, 1-(2-Pyrazol-1-ylmethyl-thiazol-4-ylmethyl)-3-trifluoromethyl-1H-pyrazole-4-carboxylic acid (1-amino-isoquinolin-6-ylmethyl)-amide], for which the values for the IC50 in assay [1] and in assay [2] were 8970 nM and 26.5 nM, respectively.

For `Cc1cnn(Cc2nc(Cn3cc(C(=O)NCc4ccc5c(N)nccc5c4)c(C(F)(F)F)n3)cs2)c1` [Example 82, 1-[2-(4-Methyl-pyrazol-1-ylmethyl)-thiazol-4-ylmethyl]-3-trifluoromethyl-1H-pyrazole-4-carboxylic acid (1-amino-isoquinolin-6-ylmethyl)-amide], the half-maximal inhibitory concentration (IC50) in assay [1] was found to be 4710 nM; in assay [2], 21.2 nM.

With `COCCN(C)c1ccc(Cn2cc(C(=O)NCc3ccc4c(N)nccc4c3)c(C3CC3)n2)cn1` [Example 86, 3-Cyclopropyl-1-{6-[(2-methoxy-ethyl)-methyl-amino]-pyridin-3-ylmethyl}-1H-pyrazole-4-carboxylic acid (1-amino-isoquinolin-6-ylmethyl)-amide], the IC50 in assay [1] turned out to be 8790 nM; in assay [2] it was 56.1 nM.

As to `Nc1nccc2cc(CNC(=O)c3cn(Cc4ccc(N5CCC(F)(F)C5)nc4)nc3C3CC3)ccc12` [Example 87, 3-Cyclopropyl-1-[6-(3,3-difluoro-pyrrolidin-1-yl)-pyridin-3-ylmethyl]-1H-pyrazole-4-carboxylic acid (1-amino-isoquinolin-6-ylmethyl)-amide], the results for the IC50 in assay [1] and in assay [2] were 6460 nM and 23.2 nM, respectively.

In the case of `COc1cc(Cn2cc(C(=O)NCc3ccc4c(N)nccc4c3)c(C3CC3)n2)cc(N2CCCC2)n1` [Example 88, 3-Cyclopropyl-1-(2-methoxy-6-pyrrolidin-1-yl-pyridin-4-ylmethyl)-1H-pyrazole-4-carboxylic acid (1-amino-isoquinolin-6-ylmethyl)-amide], the values for the IC50 in assay [1] and in assay [2] were 9630 nM and 112 nM, respectively.

Consider `COc1cc(N2CCCC2)ncc1Cn1cc(C(=O)NCc2ccc3c(N)nccc3c2)c(C2CC2)n1` [Example 89, 3-Cyclopropyl-1-(4-methoxy-6-pyrrolidin-1-yl-pyridin-3-ylmethyl)-1H-pyrazole-4-carboxylic acid (1-amino-isoquinolin-6-ylmethyl)-amide], for which the IC50 in assay [1] was 960 nM; in assay [2] it was 17.8 nM.

As to `Nc1nccc2cc(CNC(=O)c3cn(Cc4ccc(N5CCCC5)nc4)nc3C3CC3)ccc12` [Example 90, 3-Cyclopropyl-1-(6-pyrrolidin-1-yl-pyridin-3-ylmethyl)-1H-pyrazole-4-carboxylic acid (1-amino-isoquinolin-6-ylmethyl)-amide], the IC50 worked out at 4700 nM in assay [1] and 11.6 nM in assay [2].

Consider `Nc1nccc2cc(CNC(=O)c3cn(Cc4ccc(Cn5ccnn5)cc4)nc3C3CC3)ccc12` [Example 91, 3-Cyclopropyl-1-(4-[1,2,3]triazol-1-ylmethyl-benzyl)-1H-pyrazole-4-carboxylic acid (1-amino-isoquinolin-6-ylmethyl)-amide], for which the IC50 in assay [1] is greater than 10000 nM; in assay [2], 13.8 nM.

Regarding `Nc1nccc2cc(CNC(=O)c3cn(Cc4ccc(OCC(F)(F)F)nc4)nc3C3CC3)ccc12` [Example 92, 3-Cyclopropyl-1-[6-(2,2,2-trifluoro-ethoxy)-pyridin-3-ylmethyl]-1H-pyrazole-4-carboxylic acid (1-amino-isoquinolin-6-ylmethyl)-amide], the IC50 in assay [1] was greater than 10000 nM; in assay [2], 109 nM.

As for `Nc1nccc2cc(CNC(=O)c3cn(Cc4ccc(Oc5ccccc5)nc4)nc3C3CC3)ccc12` [Example 93, 3-Cyclopropyl-1-(6-phenoxy-pyridin-3-ylmethyl)-1H-pyrazole-4-carboxylic acid (1-amino-isoquinolin-6-ylmethyl)-amide], the IC50 in assay [1] is greater than 10000 nM; in assay [2] it was 75.1 nM.

Regarding `CCOc1ncc(Cn2cc(C(=O)NCc3ccc4c(N)nccc4c3)c(C3CC3)n2)cc1Cl` [Example 94, 1-(5-Chloro-6-ethoxy-pyridin-3-ylmethyl)-3-cyclopropyl-1H-pyrazole-4-carboxylic acid (1-amino-isoquinolin-6-ylmethyl)-amide], the values for the IC50 in assay [1] and in assay [2] were 2000 nM and 53.2 nM, respectively.

As for `CCN(CC)c1ncc(Cn2cc(C(=O)NCc3ccc4c(N)nccc4c3)c(C3CC3)n2)cc1F` [Example 95, 3-Cyclopropyl-1-(6-diethylamino-5-fluoro-pyridin-3-ylmethyl)-1H-pyrazole-4-carboxylic acid (1-amino-isoquinolin-6-ylmethyl)-amide], the values for the IC50 in assay [1] and in assay [2] were 9640 nM and 34 nM, respectively.

Take `Nc1nccc2cc(CNC(=O)c3cn(Cc4cnc(N5CCCC5)c(Cl)c4)nc3C3CC3)ccc12` [Example 97, 1-(5-Chloro-6-pyrrolidin-1-yl-pyridin-3-ylmethyl)-3-cyclopropyl-1H-pyrazole-4-carboxylic acid (1-amino-isoquinolin-6-ylmethyl)-amide]: the half-maximal inhibitory concentration (IC50) in assay [1] turned out to be 3010 nM; in assay [2] it was 18.5 nM.

For `CCOc1ccc(Cn2cc(C(=O)NCc3ccc4c(N)nccc4c3)c(N)n2)cn1` [Example 98, 3-Amino-1-(6-ethoxy-pyridin-3-ylmethyl)-1H-pyrazole-4-carboxylic acid (1-amino-isoquinolin-6-ylmethyl)-amide], the IC50 in assay [1] turned out to be 3140 nM; in assay [2] it was 62.4 nM.

As for `Nc1nn(Cc2ccc(N3CCCC3)nc2)cc1C(=O)NCc1ccc2c(N)nccc2c1` [Example 99, 3-Amino-1-(6-pyrrolidin-1-yl-pyridin-3-ylmethyl)-1H-pyrazole-4-carboxylic acid (1-amino-isoquinolin-6-ylmethyl)-amide], the IC50 in assay [1] was determined as 3460 nM; in assay [2], 4.15 nM.

`Nc1nn(Cc2ccc(Cn3ccccc3=O)cc2)cc1C(=O)NCc1cccc2[nH]ncc12` [Example 113, 3-Amino-1-[4-(2-oxo-2H-pyridin-1-ylmethyl)-benzyl]-1H-pyrazole-4-carboxylic acid (1H-indazol-4-ylmethyl)-amide]: the values for the IC50 in assay [1] and in assay [2] were 5950 nM and 13.3 nM, respectively.

These data come from patent publication US9533987B2, “Heterocyclic derivates” (KALVISTA PHARMACEUTICALS LIMITED, priority 2013, dated 2017).
